Data: patent US20060293231A1, “Method for enhancing bone formation” (priority 2004, published 2006)
Several values for one entry are separate records, joined by “and”; a condition that tells them apart may be missing. Equal values may be shown once. Entries after “also recorded” stand apart in the source; their conditions may differ.

Assays:
Format in all cases: cell-based, human
[1] = system: platelet-rich plasma (PRP); assay: Clotting time of platelet-rich plasma (visual)
Description: (§1) PRP composites were prepared by mixing PRP and TRAP with bone substitutes commonly utilized in the clinical setting. Twenty four-well plates (Corning Inc., Corning, N.Y.) were coated with 1% bovine serum albumin (Sigma, St. Louis, Mo.) and incubated for 1.5 hours at 37° C. Sterilized BioOss (25 mg, 0.5-1.0 mm), AlloGro (25 mg), and 45S5 Bioactive Glass (25 mg, […]) were uniformly dispersed within the wells. Fresh PRP (0.5 ml) aliquots were then dispensed into the pre-coated 24-well plates, and 30 μl of 10% calcium chloride solution were added to each well. Experiments were performed in triplicate (n=3) with the addition of bovine thrombin (75 units) or thrombin receptor activating peptide (TRAP, H2N-Ser-Phe-Leu-Leu Arg-Asn-NH2). TRAP was used to clot PRP for all bone substitute groups examined. • Growth Factor Release—Effects of Bone Substitute and Incubation Mode
(§2) PRP (0.5 mL) aliquots were dispensed into 24-well plates precoated with 1% bovine serum albumin (Sigma, St Louis, Mo.). Thirty microliters of 10% CaCl2 solution (American Reagent Laboratories, Shirley, N.Y.) were added to each well. Experiments were performed in triplicate (n=3) with the addition of bovine thrombin (30, 100, 300 units; GenTrac, Middleton, Wis.) or TRAP (10, 50, 100 μmol/L; Bachem Bioscience Inc, King of Prussia, Pa.). At 30 minutes, if still attached, the clots were gently released from the sides of the culture well with a pipette tip. PRP prepared with CaCl2 solution […] the addition of thrombin or TRAP served as the control group.
(§3) Clotting times were monitored by visualization. Clot retraction was determined by measuring the clot diameter at 1, 2, 4, and 24 hours, and the value was normalized against the well diameter. • Preparation of Platelet-Rich Plasma-Bone Substitute Composites with Thrombin Receptor Agonist Peptide-6
(§4) After the optimization of TRAP concentration, experiments were repeated with the addition of 25 or 50 mg of bone substitutes. To minimize nonspecific binding, the culture well (Corning Inc, Corning, N.Y.) was precoated with 1% bovine serum albumin (Sigma) and incubated for 1.5 hours at 37° C. Sterilized BioOss (25 mg, 0.5 to 1.0 mm; Osteohealth, Shirley, N.Y.), AlloGro (25 mg; Ceramed, Lakewood, Colo.), and 45S5 Bioactive Glass (25 mg, 300 μm; Mo-Sci, Rolla, Minn.) were uniformly dispersed within the wells. Fresh PRP (0.5 mL) aliquots were then dispensed into the precoated 24-well plates, and 30 μl of 10% CaCl2 solution (American Reagent Laboratories, Shirley, N.Y.) was added to each well. Experiments were performed in triplicate (n=3) with the addition of TRAP (H2N-Ser-Phe-Leu-Leu-Arg-Asn-NH2) to the wells containing bone substitutes. • Growth Factor Release from Platelet-Rich Plasma Prepared with Thrombin or Thrombin Receptor Agonist Peptide-6

[2] = system: platelet-rich plasma (PRP); assay: PRP clot retraction (clot diameter normalized against well diameter; released fluid volume)
Description: as §2, §3, §4
(§5) The temporal release of growth factors was examined as a function of time and mode of PRP preparation. Specifically, the PRP clotted with thrombin or TRAP was allowed to gel, and all samples were incubated at 37° C. in a humidified environment for up to 14 days. The volume of fluid released from the clot was measured. Growth factor release was assessed at 1, 3, 7, and 14 days. All collected supernatant samples were stored at −70° C. before analysis. • Quantification of Platelet-Derived Growth Factor and Transforming Growth Factor-β

[3] = system: PDGF-AB; assay: PDGF-AB release from PRP clots and PRP composites (sandwich enzyme immunoassay of supernatant); conditions: for effect of media exchange on PDGF release: Group 1 (dynamic mode) versus Group 2 (static mode, less frequent exchange)
Description: as §1
(§6) The temporal release of growth factors was examined as a function of bone substitute and mode of sample incubation. Specifically, the PRP composites were allowed to clot, and all samples were incubated at 37° C. and humidified environment for up to 14 days. The media were exchanged for all groups at 1 day after incubation. The volume of fluid released from the clot was measured and equal volume of fresh Dulbecco's Modification of Eagle's Medium (DMEM, Mediatech, Herdon, Va.) without serum was added back to each well. Subsequently, in the dynamic incubation mode (Group 1), the fluid released from the clot was collected and equal volume of fresh DMEM was added back into the well at 3, 7, and 14 days. In the static mode (Group 2), the media was exchanged only at the designated time points (7 and 14 days). All collected supernatant samples were stored at −70° C. prior to analyses. • Quantification of PDGF and TGFβ
Supernatants collected from all time points for both Group 1 and 2 were assayed for PDGF-AB and TGFβ content using diagnostic kits from R & D Systems (Minneapolis, Minn.). Both assays are based on a sandwich enzyme immunoassay technique. The PDGF-AB assay uses a pre-coated microtiter plate with a monoclonal antibody to PDGF-AA. Preparation and dilution of samples and standards were performed as directed by the manufacturer. Both the standards and the samples were incubated for 3 hours at room temperature. The plate was washed with buffer and a conjugated antibody to PDGF-BB was added to the wells and incubated at room temperature for an additional 1 hour. The plate was then washed and substrate added for 20 minutes at room temperature. The reaction was stopped and absorbance was determined at 450 nm using a spectrophotometer (SpectraFluor Plus, Tecan, Maennedorf, Switzerland). A standard curve was generated and the PDGF-AB levels (pg/ml) of each sample were determined. The total amount of growth factor was calculated based on the amount of supernatant obtained after clot retraction.
as §5
Supernatants were assayed for PDGF-AB and TGFβ content using diagnostic kits from R & D Systems (Minneapolis, Minn.). Both assays are based on a sandwich enzyme immunoassay technique. The PDGF-AB assay used a precoated microtiter plate with a monoclonal antibody to PDGF-AA. Preparation and dilution of samples and standards were performed as directed by the manufacturer. Both the standards and the samples were incubated for 3 hours at room temperature. […]

[4] = system: TGFβ; assay: TGFβ release from PRP clots and PRP composites (enzyme immunoassay of supernatant); conditions: for TGFβ release/retention post clotting, comparison between groups: day 1 post clotting, p<0.05
Description: as §1, §6
TGFβ was assayed with a similar enzyme immunoassay technique. A dilution series of TGFβ standards was prepared in 100 μl volumes in 96-well microtiter plates coated with TGFβ receptor Type II. The sample supernatants (0.025 ml) obtained from PRP composites were diluted with 0.075 ml of phosphate buffer saline solution. The samples were then activated with 0.1 ml of 1.0 N HCl incubated at room temperature for 10 minutes, neutralized by an addition of 0.1 ml of 1.2 N NaOH/0.5 M HEPES (N-[2-hydroxyethyl] piperazine-N-[2-ethanesulfonic acid]). The supernatant fractions were then incubated for 3 hours at room temperature. The wells were then washed and enzyme-conjugated polyclonal antibody to TGFβ1 was added and allowed to incubate for 1.5 hours at room temperature. The reaction was stopped and absorbance was measured at 450 nm using a spectrophotometer (SpectraFluor Plus, Tecan, Maennedorf, Switzerland). A standard curve was generated and the TGFβ levels (pg/ml) of each sample were determined. The total amount of growth factors was calculated based on the amount of supernatant obtained after clot retraction. • Statistical Analyses
as §5
TGFβ was assayed with a similar enzyme immunoassay technique. A dilution series of TGFβ standards were prepared in 96-well microtiter plates coated with TGFβ receptor Type II. The sample supernatants (0.025 mL) obtained from PRP composites were diluted with 0.075 mL of phosphate-buffered saline solution. […]

H2N-Ser-Phe-Leu-Leu-Arg-Asn-NH2 [TRAP, reference compound]
time for the clot to completely solidify ([1]; Example 1, TRAP at 100 μm): 14.5 min
time for the clot to completely solidify ([1]; Example 2, TRAP at 100 μmol/L): 9.25 min
decrease in the clot diameter ([2]; TRAP 50 μmol/L): 15%
decrease in the clot diameter ([2]; TRAP 100 μmol/L): 15%
PDGF-AB released ([3]; Example 1, at 7 days): 11,624 pg
PDGF-AB released ([3]; Example 1, day 1): 20,642 pg
PDGF-AB released ([3]; Example 2, at 7 days, mean±SD): 2,797.6±612.0 pg
PDGF-AB released ([3]; Example 2, day 1, mean±SD): 20,642±1,170.0 pg
effect of media exchange on PDGF release [3]: no statistically significant effects; also recorded: No significant difference
TGFβ retained compared to the thrombin group ([4]; Example 1, time not stated (day 1 context)): 39.2%
TGFβ retained, more than the thrombin group ([4]; Example 2, at 72 hours): 39.2%
TGFβ release/retention post clotting, comparison between groups [4]: significantly lower levels

thrombin: bovine thrombin (GenTrac), serine protease used as standard PRP clotting agent
time to complete polymerization of PRP ([1]; Example 1, 30 units of thrombin added to 0.5 ml PRP mixture): 6 min
time to clot formation ([1]; Example 1, 100 units thrombin, 0.5 ml PRP): 1.25 min
time to clot formation ([1]; Example 1, 300 units thrombin, 0.5 ml PRP): 1.25 min
time to complete polymerization of PRP ([1]; Example 2, 30 units of thrombin added to 0.5 mL PRP mixture): 6 min
time to clot formation ([1]; Example 2, 100 units thrombin): 3.25 min
clot retraction ([2]; 30 units of thrombin): 34%
shrinkage of the clot (clot retraction) ([2]; 100 units of thrombin, all time points): 43%
volume of supernatant released from the clot ([2]; all time points, comparison between groups): largest release volume
clot retraction ([2]; at 24 hours, TRAP with 25 mg bone substitute, thrombin 100 units): 56%±3% and 56%
PDGF-AB released ([3]; Example 1, at 7 days): 5,068 pg
PDGF-AB released ([3]; Example 1, day 1): 32,526 pg
PDGF-AB released ([3]; Example 2, at 7 days, mean±SD): 1,738.2 ±443.0 pg
PDGF-AB released ([3]; Example 2, day 1, mean±SD): 32,526±6,752.4 pg
effect of media exchange on PDGF release [3]: No significant difference
effect of media exchange on PDGF release ([3]; listed as Thrombin): no statistically significant effects
PDGF-AB release, more than the TRAP group ([3]; day 1): approximately 36%
TGFβ release from the clot after 14 days ([4]; after 14 days): all of the TGFβ present in the original PRP thrombin clots had been released; also recorded: all the TGFβ in thrombin clots was released
TGFβ release/retention post clotting, comparison between groups [4]: highest amount
TGFβ already released from the clot ([4]; within 24 hours, of total TGFβ in original PRP): over 81.4%
